Reference: PubChem BioAssay (NCI)
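How tested: cells in 96-well plates exposed to compound for 48 hours at five concentrations. GI50 = concentration required for 50% inhibition of growth. TGI is the concentration that stops growth completely.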

Legend:
Experiment in all cases: NCI anticancer screen, dose series, 48 h
M14 melanoma = tested on: M14 melanoma
DU-145 prostate = tested on: DU-145 prostate
UACC-257 melanoma = tested on: UACC-257 melanoma
HS 578T breast = tested on: HS 578T breast
NCI-H460 lung = tested on: NCI-H460 lung
LOX IMVI melanoma = tested on: LOX IMVI melanoma
NCI-H23 lung = tested on: NCI-H23 lung
SNB-75 CNS = tested on: SNB-75 CNS
CAKI-1 renal = tested on: CAKI-1 renal
786-0 renal = tested on: 786-0 renal
HCC-2998 colon = tested on: HCC-2998 colon
NCI-H226 lung = tested on: NCI-H226 lung
HL-60(TB) leukemia = tested on: HL-60(TB) leukemia
TK-10 renal = tested on: TK-10 renal
UACC-62 melanoma = tested on: UACC-62 melanoma
PC-3 prostate = tested on: PC-3 prostate
MDA-MB-231 breast = tested on: MDA-MB-231 breast
CCRF-CEM leukemia = tested on: CCRF-CEM leukemia
MCF7 breast = tested on: MCF7 breast
BT-549 breast = tested on: BT-549 breast
SK-OV-3 ovarian = tested on: SK-OV-3 ovarian
SW-620 colon = tested on: SW-620 colon
EKVX NSCLC = tested on: EKVX NSCLC
K-562 leukemia = tested on: K-562 leukemia
U251 CNS = tested on: U251 CNS
MALME-3M melanoma = tested on: MALME-3M melanoma
NCI/ADR-RES ovarian = tested on: NCI/ADR-RES ovarian
HCT-116 colon = tested on: HCT-116 colon
ACHN renal = tested on: ACHN renal
OVCAR-4 ovarian = tested on: OVCAR-4 ovarian
OVCAR-5 ovarian = tested on: OVCAR-5 ovarian
MOLT-4 leukemia = tested on: MOLT-4 leukemia
COLO 205 colon = tested on: COLO 205 colon
OVCAR-3 ovarian = tested on: OVCAR-3 ovarian
A549 NSCLC = tested on: A549 NSCLC
HOP-92 NSCLC = tested on: HOP-92 NSCLC
MDA-MB-468 breast = tested on: MDA-MB-468 breast
SN12C renal = tested on: SN12C renal
T-47D breast = tested on: T-47D breast
SR leukemia = tested on: SR leukemia
SK-MEL-28 melanoma = tested on: SK-MEL-28 melanoma
HCT-15 colon = tested on: HCT-15 colon
SNB-19 CNS = tested on: SNB-19 CNS
SF-268 CNS = tested on: SF-268 CNS
KM12 colon = tested on: KM12 colon
UO-31 renal = tested on: UO-31 renal
SK-MEL-5 melanoma = tested on: SK-MEL-5 melanoma
SF-539 CNS = tested on: SF-539 CNS
SF-295 CNS = tested on: SF-295 CNS
HOP-62 NSCLC = tested on: HOP-62 NSCLC
HT29 colon = tested on: HT29 colon
MDA-MB-435 = tested on: MDA-MB-435
NCI-H522 lung = tested on: NCI-H522 lung
RXF 393 renal = tested on: RXF 393 renal
IGROV1 ovarian = tested on: IGROV1 ovarian
RPMI-8226 leukemia = tested on: RPMI-8226 leukemia
OVCAR-8 ovarian = tested on: OVCAR-8 ovarian

For `Cc1cc(C(NC(=O)CCCCCNc2cccc3c2C(=O)N(C2CCC(=O)CC2=O)C3=O)c2cccc(N(C)C)c2)c(O)c2ncccc12` (centres undefined), the GI50 (M14 melanoma) was 0.585 µM, the TGI (M14 melanoma) was 3.78 µM and the GI50 (DU-145 prostate) was 3.03 µM. For the same compound, the TGI (DU-145 prostate) was > 58.5 µM, the GI50 (UACC-257 melanoma) was 2.45 µM and the TGI (UACC-257 melanoma) was > 58.5 µM. For the same compound, the GI50 (HS 578T breast) was 0.482 µM, the TGI (HS 578T breast) was > 58.5 µM and the GI50 (NCI-H460 lung) was 1.14 µM. The TGI (NCI-H460 lung) was > 58.5 µM, the GI50 (LOX IMVI melanoma) was 1.2 µM and the TGI (LOX IMVI melanoma) was > 16.1 µM. The GI50 (NCI-H23 lung) was 1.54 µM, the TGI (NCI-H23 lung) was > 58.5 µM and the GI50 (SNB-75 CNS) was 0.766 µM. The TGI (SNB-75 CNS) was > 58.5 µM, the GI50 (CAKI-1 renal) was 1.14 µM and the TGI (CAKI-1 renal) was > 58.5 µM. For the same compound, the GI50 (786-0 renal) was 1.36 µM, the TGI (786-0 renal) was > 58.5 µM and the GI50 (HCC-2998 colon) was 0.941 µM. For the same compound, the TGI (HCC-2998 colon) was 3.76 µM, the GI50 (NCI-H226 lung) was 0.782 µM and the TGI (NCI-H226 lung) was > 15.8 µM. For the same compound, the GI50 (HL-60(TB) leukemia) was 0.0199 µM, the TGI (HL-60(TB) leukemia) was 1.67 µM and the GI50 (TK-10 renal) was 2.67 µM. The TGI (TK-10 renal) was > 58.5 µM, the GI50 (UACC-62 melanoma) was 1.33 µM and the TGI (UACC-62 melanoma) was 4.63 µM. For the same compound, the GI50 (PC-3 prostate) was 0.103 µM, the TGI (PC-3 prostate) was > 58.5 µM and the GI50 (MDA-MB-231 breast) was 0.0222 µM. For the same compound, the TGI (MDA-MB-231 breast) was 0.136 µM, the GI50 (CCRF-CEM leukemia) was 0.0268 µM and the TGI (CCRF-CEM leukemia) was 1.36 µM. The GI50 (MCF7 breast) was 0.982 µM, the TGI (MCF7 breast) was > 58.5 µM and the GI50 (BT-549 breast) was 0.0851 µM. The TGI (BT-549 breast) was 0.93 µM, the GI50 (SK-OV-3 ovarian) was 1.53 µM and the TGI (SK-OV-3 ovarian) was 5.02 µM. The GI50 (SW-620 colon) was 0.564 µM, the TGI (SW-620 colon) was > 58.5 µM and the GI50 (EKVX NSCLC) was 1.36 µM. For the same compound, the TGI (EKVX NSCLC) was > 58.5 µM, the GI50 (K-562 leukemia) was 0.824 µM and the TGI (K-562 leukemia) was > 58.5 µM. For the same compound, the GI50 (U251 CNS) was 1.39 µM, the TGI (U251 CNS) was > 58.5 µM and the GI50 (MALME-3M melanoma) was 0.0975 µM. For the same compound, the TGI (MALME-3M melanoma) was 0.957 µM, the GI50 (NCI/ADR-RES ovarian) was 5.44 µM and the TGI (NCI/ADR-RES ovarian) was > 58.5 µM. The GI50 (HCT-116 colon) was 0.932 µM, the TGI (HCT-116 colon) was > 58.5 µM and the GI50 (ACHN renal) was 1.92 µM. The TGI (ACHN renal) was > 58.5 µM, the GI50 (OVCAR-4 ovarian) was 1.48 µM and the TGI (OVCAR-4 ovarian) was > 58.5 µM. The GI50 (OVCAR-5 ovarian) was 1.9 µM, the TGI (OVCAR-5 ovarian) was > 58.5 µM and the GI50 (MOLT-4 leukemia) was 0.0346 µM. The TGI (MOLT-4 leukemia) was > 58.5 µM, the GI50 (COLO 205 colon) was 1.08 µM and the TGI (COLO 205 colon) was > 58.5 µM. For the same compound, the GI50 (OVCAR-3 ovarian) was 1.23 µM, the TGI (OVCAR-3 ovarian) was > 58.5 µM and the GI50 (A549 NSCLC) was 2.12 µM. For the same compound, the TGI (A549 NSCLC) was > 58.5 µM, the GI50 (HOP-92 NSCLC) was 0.0365 µM and the TGI (HOP-92 NSCLC) was 0.524 µM. It also gave a GI50 (MDA-MB-468 breast) of 0.0278 µM, a TGI (MDA-MB-468 breast) of 0.462 µM and a GI50 (SN12C renal) of 1.21 µM. For the same compound, the TGI (SN12C renal) was > 58.5 µM, the GI50 (T-47D breast) was 0.739 µM and the TGI (T-47D breast) was > 58.5 µM. For the same compound, the GI50 (SR leukemia) was 0.922 µM, the TGI (SR leukemia) was > 58.5 µM and the GI50 (SK-MEL-28 melanoma) was 2.06 µM. For the same compound, the TGI (SK-MEL-28 melanoma) was > 58.5 µM, the GI50 (HCT-15 colon) was 0.91 µM and the TGI (HCT-15 colon) was > 58.5 µM. The GI50 (SNB-19 CNS) was 1.56 µM, the TGI (SNB-19 CNS) was > 58.5 µM and the GI50 (SF-268 CNS) was 1.41 µM. The TGI (SF-268 CNS) was > 58.5 µM, the GI50 (KM12 colon) was 1.73 µM and the TGI (KM12 colon) was > 58.5 µM. For the same compound, the GI50 (UO-31 renal) was 0.745 µM, the TGI (UO-31 renal) was > 25.4 µM and the GI50 (SK-MEL-5 melanoma) was 0.822 µM. The TGI (SK-MEL-5 melanoma) was 1.83 µM, the GI50 (SF-539 CNS) was 1.83 µM and the TGI (SF-539 CNS) was 30.8 µM. The GI50 (SF-295 CNS) was 1.53 µM, the TGI (SF-295 CNS) was > 58.5 µM and the GI50 (HOP-62 NSCLC) was 0.547 µM. The TGI (HOP-62 NSCLC) was > 12.6 µM, the GI50 (HT29 colon) was 2.36 µM and the TGI (HT29 colon) was > 58.5 µM. The GI50 (MDA-MB-435) was 2.22 µM, the TGI (MDA-MB-435) was > 58.5 µM and the GI50 (NCI-H522 lung) was 1.8 µM. For the same compound, the TGI (NCI-H522 lung) was > 58.5 µM, the GI50 (RXF 393 renal) was 1.55 µM and the TGI (RXF 393 renal) was > 58.5 µM. For the same compound, the GI50 (IGROV1 ovarian) was 0.686 µM, the TGI (IGROV1 ovarian) was 6.17 µM and the GI50 (RPMI-8226 leukemia) was 1.58 µM. The TGI (RPMI-8226 leukemia) was > 58.5 µM, the GI50 (OVCAR-8 ovarian) was 0.555 µM and the TGI (OVCAR-8 ovarian) was > 58.5 µM.
